Paper PMC11206245 (Pharmaceuticals, 2024)
In brackets after ≈: the same amount, converted by molar mass. Like-named read-outs stand apart in the source and are kept apart here.

Experiments:
healthy dogs = assay: Study A dose-escalation protocol: tolerability, side and adverse effects; conditions: for Animals with increases in AST in plasma: reversible
Text: Control animals were the same dogs that, prior to treatment, received an intravenous injection of the placebo solution. After that, samples were collected for hematological and biochemical analyses, as described in Section 4.2, “Animal Selection and Care Procedures”.
Blood samples were collected for hematological (hemogram) and biochemical analyses, as described in Section 4.2, “Animal Selection and Care Procedures”. This study utilized a 6-step dose-escalation design for the treated dogs. […] Wash-out periods, ranging from 7 to 10 days, were observed between each dosage step. […] Blood samples were collected at various times, as specified in Section 4.4.1, “Peripheral Blood Sample Collection”. […] Peripheral blood samples for hematological and biochemical analyses were collected on days 2, 4, 7, and 10 [105].
Two separate clinical reports were used to document data obtained from clinical evaluations. A general clinical description was used to note the following information daily: whether the animal was alert, prostrate, depressed, apathetic or aggressive, drinking water, and eating food normally, as well as feces and urine evaluations and the presence of vomit. Every two days, we noted the following parameters: body temperature (°C, measured using a rectal thermometer), heart rate (beats/minute), respiratory rate (cycles/minute), external mucous membrane coloration (conjunctiva and oral), hydration (skin elasticity), superficial lymph node enlargement (submandibular and popliteal), stool consistency, presence of lesions or secretions in the eyes, presence of nasal secretion (quantity and type), coat status, presence of skin lesions and ectoparasites, temperament, presence of claudication, and coordination and balance. Hemograms were performed following blood collection. The following biochemical analyses were performed: total proteins, albumin (A), globulins (Gs), A/G ratio, total cholesterol, bilirubin, renal profile (urea and creatinine), and hepatic enzymatic profiles (ALP, ALT, AST, AF, and GGT).

[1] = cited from earlier work
[2] = Study B: 17-AAG pharmacokinetics in subcutaneous interstitial fluid (tissue cages, HPLC); assay type: in vivo; conditions: dogs; for AUC(0-t) / Cmax / half-life: both sexes, dog, subcutaneous interstitial fluid, iv, mean ± SD; for half-life: read-out: t ½ (converted)
Procedure: Study B involved 9 healthy dogs (8 females and 1 male), including the 4 females from Study A after wash-out and upon confirmation of regular laboratory evaluations. […] Tolerability evaluations were performed via clinical examinations and blood sampling for laboratory evaluation after each treatment. For toxicity assessments, 4, 6, and 8 h after the final administration, the animals were euthanized for tissue collection and histopathological evaluation.
In Study B, samples of interstitial fluid were collected from tissue cages implanted subcutaneously in the dogs. These cages were prepared based on a protocol previously described by Stegemann et al.. They were made from non-toxic, siliconized, flexible, non-irritant PVC tubes with dimensions of 3.5 cm long, an internal diameter of 3 mm, and an external diameter of 5 mm. Three autoclaved cages were surgically implanted between the scapula of each animal under sedation (xylazine 2%, Syntec, Tambore, SP, Brazil) and local anesthesia (lidocaine 2% and epinephrine 0.002%, Syntec). Before and after surgical procedures, antibiotics (enrofloxacin–5 mg/Kg, Syntec) and an anti-inflammatory (ketoprofen 1%–1 mL/Kg, CEVA, Paulínia, SP, Brazil) drug were administered. To allow animals to heal, as well as the formation of the granulation tissue around the cages, a recovery time of 10 days after surgery was considered. The subcutaneous interstitial fluid was collected by percutaneous puncture using a 21 G needle and 20 mL syringe.
For the mobile phase, acetonitrile (ACN, J.T.Baker®, Philadelphia, PA, USA) and water with 1% acetic acid (J.T.Baker®)were used. Briefly, aliquots of 200 µL of plasma or 100 µL of subcutaneous interstitial liquid were placed in a 1.5 mL microcentrifuge tube. Subsequently, 600 µL and 300 µL of ACN were added to all plasma and subcutaneous interstitial liquid samples, respectively. The mixture was vortexed for 30 s, followed by centrifugation at 3400× g for 10 min. Next, 500 µL of the plasma supernatant and 250 µL of the subcutaneous interstitial fluid were pipetted into a new vial. The method was validated in accordance with the International Council for Harmonization (ICH) technical requirements for the evaluation of medicinal products. […] No matrix interferences were observed. Two calibrated plasma curves of 17-AAG were validated with different injection volumes. […] Data acquisition and processing were performed using LabSolutions software (Version 5.3).
Cmax, half-life (t ½), distribution volume, and clearance were also determined. Data were analyzed in Excel and WinNonlin using a mono-compartmental model.

[3] = Study A, healthy dogs n = 4, single IV dose 50 mg/m^2
[4] = Study A, healthy dogs n = 4, single IV dose 100 mg/m^2
[5] = Study A, healthy dogs n = 4, single IV dose 150 mg/m^2
[6] = Study A, healthy dogs n = 4, single IV dose 200 mg/m^2
[7] = Study A, healthy dogs n = 4, single IV dose 250 mg/m^2

With `C=CCNC1=C2C[C@@H](C)C[C@H](OC)[C@H](O)[C@@H](C)/C=C(\C)[C@H](OC(N)=O)[C@@H](OC)/C=C\C=C(/C)C(=O)NC(=CC1=O)C2=O` [17-AAG, 17-(allylamino)-17-demethoxygeldanamycin] the “Dogs with bloody diarrhea” value (healthy dogs; Study A, 200 mg/m^2) was 75%, the “Dogs with bloody diarrhea” value (healthy dogs; Study A, 250 mg/m^2) was 100% and the “Animals presenting nausea during administration” value (healthy dogs; Study A, dogs, 200 mg/m^2) was “all four animals”. For the same molecule, the “Animals presenting nausea during administration” value (healthy dogs; Study A, dogs, 250 mg/m^2) was “all four animals”, the “Animals with ALT alteration” value (healthy dogs; [3]) was 1 (25%) N (%) and the “Animals with AST alteration” value (healthy dogs; [3]) was 0 N (%). The “Animals with bloody diarrhea” value (healthy dogs; [3]) was 0 N (%), the “Animals with diarrhea (pasty feces)” value (healthy dogs; [3]) was 0 N (%) and the Animals with erythema (healthy dogs; [3]) was 0 N (%). For the same molecule, the Animals with hyperthermia (healthy dogs; [3]) was 0 N (%), the Animals with nausea (healthy dogs; [3]) was 0 N (%) and the Animals with pruritus (healthy dogs; [3]) was 0 N (%). For the same molecule, the Animals with vomit (healthy dogs; [3]) was 0 N (%), the “Animals with ALT alteration” value (healthy dogs; [4]) was 2 (50%) N (%) and the “Animals with AST alteration” value (healthy dogs; [4]) was 2 (50%) N (%). The “Animals with bloody diarrhea” value (healthy dogs; [4]) was 0 N (%), the “Animals with diarrhea (pasty feces)” value (healthy dogs; [4]) was 1 (25%) N (%) and the Animals with erythema (healthy dogs; [4]) was 0 N (%). The Animals with hyperthermia (healthy dogs; [4]) was 0 N (%), the Animals with nausea (healthy dogs; [4]) was 0 N (%) and the Animals with pruritus (healthy dogs; [4]) was 0 N (%). The Animals with vomit (healthy dogs; [4]) was 0 N (%), the “Animals with ALT alteration” value (healthy dogs; [5]) was 3 (75%) N (%) and the “Animals with AST alteration” value (healthy dogs; [5]) was 2 (50%) N (%). The “Animals with bloody diarrhea” value (healthy dogs; [5]) was 0 N (%), the “Animals with diarrhea (pasty feces)” value (healthy dogs; [5]) was 1 (25%) N (%) and the Animals with erythema (healthy dogs; [5]) was 1 (25%) N (%). For the same molecule, the Animals with hyperthermia (healthy dogs; [5]) was 1 (25%) N (%), the Animals with nausea (healthy dogs; [5]) was 0 N (%) and the Animals with pruritus (healthy dogs; [5]) was 1 (25%) N (%). For the same molecule, the Animals with vomit (healthy dogs; [5]) was 0 N (%), the “Animals with ALT alteration” value (healthy dogs; [6]) was 3 (75%) N (%) and the “Animals with AST alteration” value (healthy dogs; [6]) was 4 (100%) N (%). The “Animals with bloody diarrhea” value (healthy dogs; [6]) was 3 (75%) N (%), the “Animals with diarrhea (pasty feces)” value (healthy dogs; [6]) was 1 (25%) N (%) and the Animals with erythema (healthy dogs; [6]) was 2 (50%) N (%). For the same molecule, the Animals with hyperthermia (healthy dogs; [6]) was 0 N (%), the Animals with nausea (healthy dogs; [6]) was 4 (100%) N (%) and the Animals with pruritus (healthy dogs; [6]) was 3 (75%) N (%). For the same molecule, the Animals with vomit (healthy dogs; [6]) was 1 (25%) N (%), the “Animals with ALT alteration” value (healthy dogs; [7]) was 4 (100%) N (%) and the “Animals with AST alteration” value (healthy dogs; [7]) was 4 (100%) N (%). For the same molecule, the “Animals with bloody diarrhea” value (healthy dogs; [7]) was 4 (100%) N (%), the “Animals with diarrhea (pasty feces)” value (healthy dogs; [7]) was 1 (25%) N (%) and the Animals with erythema (healthy dogs; [7]) was 4 (100%) N (%). The Animals with hyperthermia (healthy dogs; [7]) was 1 (25%) N (%), the Animals with nausea (healthy dogs; [7]) was 4 (100%) N (%) and the Animals with pruritus (healthy dogs; [7]) was 4 (100%) N (%). The Animals with vomit (healthy dogs; [7]) was 1 (25%) N (%), the “Animals with increases in AST in plasma” value (healthy dogs; dogs, 100 mg/m^2) was 50% and the “Animals with increases in AST in plasma” value (healthy dogs; dogs, 150 mg/m^2) was 50%. For the same molecule, the “Animals with increases in AST in plasma” value (healthy dogs; dogs, 200 mg/m^2) was 100%, the “Animals with increases in AST in plasma” value (healthy dogs; dogs, 250 mg/m^2) was 100% and the maximum tolerable dose (healthy dogs; dogs, Study A, IV) was 150 mg/m^2. For the same molecule, the “Solubility in Dimethyl Sulfoxide (DMSO)” value ([1]; according to PubChem) was 100 mM (≈ 58.6 mg/mL), the Solubility in ethanol ([1]; according to PubChem) was 10 mM (≈ 5.86 mg/mL) and the Aqueous solubility ([1]; aqueous) was “approximately 0.01 mg/mL”. The “Concentration in subcutaneous interstitial fluid (tissue cages)” value ([2]; Study B, 150 mg/m^2 IV, at all times evaluated / at 48 h intervals) was ~100 ng/mL, the AUC(0-t) ([2]; 150 mg/m2, AUC 0–8 h, Study B, 1st administration of 150 mg/m^2 IV) was 2660 ± 437 ng·h/mL and the AUC(0-t) ([2]; 150 mg/m2, AUC 0–8 h, Study B, 2nd administration of 150 mg/m^2 IV) was 2910 ± 686 ng·h/mL. It also gave an AUC(0-t) ([2]; 150 mg/m2, AUC 0–8 h, Study B, 3rd administration of 150 mg/m^2 IV) of 2730 ± 1440 ng·h/mL, a Cmax ([2]; 150 mg/m2, Study B, 1st administration of 150 mg/m^2 IV) of 704 ± 332 ng/mL and a Cmax ([2]; 150 mg/m2, Study B, 2nd administration of 150 mg/m^2 IV) of 736 ± 294 ng/mL. The Cmax ([2]; 150 mg/m2, Study B, 3rd administration of 150 mg/m^2 IV) was 726 ± 401 ng/mL, the AUC(0-t) ([2]; 150 mg/m2, Study B, 1st administration of 150 mg/m^2 IV, read-out: AUC 0–4 h) was 1820 ± 430 ng·h/mL and the AUC(0-t) ([2]; 150 mg/m2, Study B, 1st administration of 150 mg/m^2 IV, read-out: AUC 0–6 h) was 2300 ± 409 ng·h/mL. It also gave an AUC(0-t) ([2]; 150 mg/m2, Study B, 1st administration of 150 mg/m^2 IV, read-out: AUC 0–24 h) of 4760 ± 333 ng·h/mL, an AUC(0-t) ([2]; 150 mg/m2, Study B, 1st administration of 150 mg/m^2 IV, read-out: AUC 0–47.5 h) of 7380 ± 1360 ng·h/mL and a half-life ([2]; 150 mg/m2, Study B, 1st of three IV administrations of 150 mg/m^2 at 48 h intervals) of 38 ± 16 h. For the same molecule, the AUC(0-t) ([2]; 150 mg/m2, Study B, 2nd administration of 150 mg/m^2 IV, read-out: AUC 0–4 h) was 1940 ± 618 ng·h/mL, the AUC(0-t) ([2]; 150 mg/m2, Study B, 2nd administration of 150 mg/m^2 IV, read-out: AUC 0–6 h) was 2550 ± 638 ng·h/mL and the AUC(0-t) ([2]; 150 mg/m2, Study B, 2nd administration of 150 mg/m^2 IV, read-out: AUC 0–24 h) was 4070 ± 700 ng·h/mL. It also gave an AUC(0-t) ([2]; 150 mg/m2, Study B, 2nd administration of 150 mg/m^2 IV, read-out: AUC 0–47.5 h) of 7050 ± 2190 ng·h/mL, a half-life ([2]; 150 mg/m2, Study B, 2nd of three IV administrations of 150 mg/m^2 at 48 h intervals) of 28 ± 9 h and an AUC(0-t) ([2]; 150 mg/m2, Study B, 3rd administration of 150 mg/m^2 IV, read-out: AUC 0–4 h) of 895 ± 408 ng·h/mL. It also gave an AUC(0-t) ([2]; 150 mg/m2, Study B, 3rd administration of 150 mg/m^2 IV, read-out: AUC 0–6 h) of 2040 ± 1100 ng·h/mL and an AUC(0-t) ([2]; 150 mg/m2, Study B, 3rd administration of 150 mg/m^2 IV, read-out: AUC 0–24 h) of 3500 ± 2420 ng·h/mL.
